Structures are written as SMILES. Counter-ions that a name gives are not always drawn.

Sequence of PRMT5/MEP50 complex (O14744 whole entry): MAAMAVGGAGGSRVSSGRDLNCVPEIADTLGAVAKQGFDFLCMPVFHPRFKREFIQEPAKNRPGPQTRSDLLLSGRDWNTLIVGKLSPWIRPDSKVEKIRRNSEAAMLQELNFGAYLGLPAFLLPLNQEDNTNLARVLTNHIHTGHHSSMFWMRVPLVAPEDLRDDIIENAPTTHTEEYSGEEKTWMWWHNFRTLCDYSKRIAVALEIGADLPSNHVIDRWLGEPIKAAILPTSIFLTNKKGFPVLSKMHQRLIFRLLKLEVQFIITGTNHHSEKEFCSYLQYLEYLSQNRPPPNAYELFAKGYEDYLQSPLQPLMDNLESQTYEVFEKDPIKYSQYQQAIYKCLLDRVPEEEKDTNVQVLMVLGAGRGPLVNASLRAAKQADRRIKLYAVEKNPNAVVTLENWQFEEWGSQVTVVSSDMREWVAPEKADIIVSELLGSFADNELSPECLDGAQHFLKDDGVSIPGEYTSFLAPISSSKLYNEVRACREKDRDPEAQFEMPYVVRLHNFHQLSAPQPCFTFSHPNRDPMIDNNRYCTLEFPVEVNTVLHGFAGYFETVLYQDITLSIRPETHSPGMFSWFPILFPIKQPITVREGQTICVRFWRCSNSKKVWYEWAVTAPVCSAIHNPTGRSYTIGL
Sequence of PRMT5/MEP50 complex (Q9BQA1 whole entry partner): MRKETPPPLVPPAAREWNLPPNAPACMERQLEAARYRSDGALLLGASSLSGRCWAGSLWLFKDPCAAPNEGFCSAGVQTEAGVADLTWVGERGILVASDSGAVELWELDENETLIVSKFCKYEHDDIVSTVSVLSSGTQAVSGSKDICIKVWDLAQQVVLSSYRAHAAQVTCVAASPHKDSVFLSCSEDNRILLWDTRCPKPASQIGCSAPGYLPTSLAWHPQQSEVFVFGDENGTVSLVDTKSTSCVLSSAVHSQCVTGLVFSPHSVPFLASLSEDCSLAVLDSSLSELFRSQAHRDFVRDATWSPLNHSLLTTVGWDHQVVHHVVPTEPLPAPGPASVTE

For one assay, the target named is PRMT5/MEP50 complex (Homo sapiens (Human), UniProt O14744). Description: Biochemical assay: PRMT5/MEP50 methylation of histone H2A with 3H-SAM, filter plate scintillation. To be noted: biochemical potency; read-out: PRTMT5/MEP50 IC50. On the procedure:
Biochemical Assay Protocol
Compounds were solubilized, and 3-fold diluted in 100% DMSO. […] Standard reactions were performed in a total volume of […] assay buffer, with histone H2A (5 μM final) as substrate. To this was added the PRMT5/MEP50 complex diluted to provide a final assay concentration of 5 nM and the compounds were allowed to preincubate for 15 to 20 minutes at room temperature. The reaction was initiated by adding S-[3H-methyl]-adenosyl-L-methionine (PerkinElmer) to final concentration of 1 μM. Following a 60 minutes incubation at 30° C., the reaction was stopped by adding 100 μL of 20% TCA. Each reaction was spotted onto filter plate (MultiScreen FB Filter Plate, Millipore), and washed 5 times with PBS buffer, Scintillation fluid was added to the filter plate and read in a scintillation counter. IC50 values were determined by fitting the data to the standard 4 parameters with Hill Slope using GraphPad Prism software.
Take `N/N=c1/nc[nH]c2c1c(F)cn2[C@@H]1C[C@H]([C@H](O)c2ccc(Cl)cc2)[C@@H](O)[C@H]1O` [Example 28-B, 7-[(1R,2S,3R,4R)-4-[(S)-(4-chlorophenyl)-hydroxy-methyl]-2,3-dihydroxy-cyclopentyl]-5-fluoro-H-pyrrolo[2,3-d]pyrimidin-4-one hydrazone hydrochloride]: the IC50 stood at 1160 nM.
Still for that read-out and setting: the value for `CO/N=c1/nc[nH]c2c1ccn2[C@@H]1C[C@H]([C@H](O)c2ccc(Cl)cc2)[C@@H](O)[C@H]1O` [Example 49-B, (1S,2R,3R,5R)-3-[(S)-(4-chlorophenyl)-hydroxy-methyl]-5-[(4Z)-4-methoxyimino-1H-pyrrolo[2,3-d]pyrimidin-7-yl]cyclopentane-1,2-diol hydrochloride] was 543 nM; that for `O/N=c1\nc[nH]c2c1ccn2[C@@H]1C[C@H]([C@H](O)c2ccc(F)c(F)c2)[C@@H](O)[C@H]1O` [Example 88-B, 7-((1R,2S,3R,4R)-4-((S)-(3,4-difluorophenyl)(hydroxy)methyl)-2,3-dihydroxycyclopentyl)-1,7-dihydro-4H-pyrrolo[2,3-d]pyrimidin-4-one oxime] was 37 nM; that for `CO/N=c1\nc[nH]c2c1ccn2[C@@H]1C[C@H]([C@H](O)c2ccc(F)c(F)c2)[C@@H](O)[C@H]1O` [Example 89-B, 7-((1R,2S,3R,4R)-4-((S)-(3,4-difluorophenyl)(hydroxy)methyl)-2,3-dihydroxycyclopentyl)-1,7-dihydro-4H-pyrrolo[2,3-d]pyrimidin-4-one O-methyl oxime] was 95 nM.
On to `O/N=c1/nc[nH]c2c1ccn2[C@@H]1C[C@H]([C@H](O)c2ccc(Cl)c(Cl)c2)[C@@H](O)[C@H]1O` [Example 93-B, 7-((1R,2S,3R,4R)-4-((S)-(3,4-dichlorophenyl)(hydroxy)methyl)-2,3-dihydroxycyclopentyl)-1,7-dihydro-4H-pyrrolo[2,3-d]pyrimidin-4-one oxime], for which the IC50 is 2.3 nM.

The same assay, now with this note: histone H2A 5 μM, SAM 1 μM, enzyme 5 nM; read-out: PRMT5/MEP50 IC50.
Turning to `CCO/N=c1\[nH]cnc2c1ncn2[C@@H]1O[C@H]([C@](C)(O)c2ccc(Cl)c(Cl)c2)[C@@H](O)[C@H]1O` [Example 93, (2S,3S,4R,5R)-2-[(1R)-Example 931-(3,4-dichlorophenyl)-1-hydroxy-ethyl]-5-[(6Z)-6-ethoxyimino-1H-purin-9-yl]tetrahydrofuran-3,4-diol], the IC50 came to 920 nM.
For the compound `CO/N=c1\[nH]cnc2c1ncn2[C@@H]1O[C@H]([C@](C)(O)c2ccc(Cl)c(C)c2)[C@@H](O)[C@H]1O` [Example 94, (2S,3S,4R,5R)-2-[(1R)-1-(4-chloro-3-methylphenyl)-1-hydroxy-ethyl]-5-[(6Z)-6-methoxyimino-1H-purin-9-yl]tetrahydrofuran-3,4-diol], the IC50 is 1620 nM.
Regarding `CCO/N=c1\[nH]cnc2c1ncn2[C@@H]1O[C@H]([C@](C)(O)c2ccc(Cl)c(C)c2)[C@@H](O)[C@H]1O` [Example 95, (2S,3S,4R,5R)-2-[(1R)-1-(4-chloro-3-methylphenyl)-1-hydroxy-ethyl]-5-[(6Z)-6-ethoxyimino-1H-purin-9-yl]tetrahydrofuran-3,4-diol], the IC50 stood at 699 nM.
The same measure, in the same setting: the value for `CCO/N=c1\nc[nH]c2c1ccn2[C@@H]1O[C@H]([C@H](O)c2ccc(Cl)cc2)[C@@H](O)[C@H]1O` [Example 97, 7-((2R,3R,4S,5R)-5-((R)-(4-chlorophenyl)(hydroxy)methyl)-3,4-dihydroxytetrahydrofuran-2-yl)-1,7-dihydro-4H-pyrrolo[2,3-d]pyrimidin-4-one O-ethyl oxime] was 42 nM.
As to `CO/N=c1\nc[nH]c2c1c(CCO)cn2[C@@H]1O[C@H]([C@H](O)c2ccc(Cl)c(Cl)c2)[C@@H](O)[C@H]1O` [Example 100, 7-((2R,3R,4S,5R)-5-((R)-(3,4-dichlorophenyl)(hydroxy)methyl)-3,4-dihydroxytetrahydrofuran-2-yl)-5-(2-hydroxyethyl)-1,5-dihydro-4H-7l4-pyrrolo[2,3-d]pyrimidin-4-one O-methyl oxime], the IC50 came out at 1770 nM.
In the case of `C#Cc1cn([C@@H]2O[C@H]([C@H](O)c3ccc(Cl)cc3)[C@@H](O)[C@H]2O)c2[nH]cn/c(=N\OC)c12` [Example 101, 7-((2R,3R,4S,5R)-5-((R)-(4-chlorophenyl)(hydroxy)methyl)-3,4-dihydroxytetrahydrofuran-2-yl)-5-ethynyl-1,7-dihydro-4H-pyrrolo[2,3-d]pyrimidin-4-one O-methyl oxime], the IC50 is 308 nM.
Regarding `C#Cc1cn([C@@H]2O[C@H]([C@H](O)c3ccc(Cl)c(Cl)c3)[C@@H](O)[C@H]2O)c2[nH]cn/c(=N\OC)c12` [Example 104, 7-((2R,3R,4S,5R)-5-((R)-(3,4-dichlorophenyl)(hydroxy)methyl)-3,4-dihydroxytetrahydrofuran-2-yl)-5-ethynyl-1,5-dihydro-4H-7l4-pyrrolo[2,3-d]pyrimidin-4-one O-methyl oxime], the IC50 stood at 10.2 nM.
Still for that read-out and setting: the value for `C[C@@](O)(C1C=C(Cl)C(Cl)=CC1)[C@H]1O[C@@H](n2ccc3/c(=N\O)nc[nH]c32)[C@H](O)[C@@H]1O` (stereo partly drawn) [Example 105, 7-((2R,3R,4S,5S)-5-((1R)-1-(3,4-dichlorocyclohexa-2,4-dien-1-yl)-1-hydroxyethyl)-3,4-dihydroxytetrahydrofuran-2-yl)-1,7-dihydro-4H-pyrrolo[2,3-d]pyrimidin-4-one oxime] was 0.2 nM; that for `O[C@@H]1[C@H](O)[C@@H]([C@H](O)c2ccc(Cl)c(Cl)c2)O[C@H]1n1ccc2/c(=N/OCC(F)F)nc[nH]c21` [Example 106, 7-((2R,3R,4S,5R)-5-((R)-(3,4-dichlorophenyl)(hydroxy)methyl)-3,4-dihydroxytetrahydrofuran-2-yl)-1,4a,7,7a-tetrahydro-4H-pyrrolo[2,3-d]pyrimidin-4-one 0-(2,2-difluoroethyl) oxime] was 113 nM; that for `CO/N=c1\nc[nH]c2c1c(F)cn2[C@@H]1O[C@H]([C@](C)(O)c2ccc(Cl)c(Cl)c2)[C@@H](O)[C@H]1O` [Example 107, 7-((2R,3R,4S,5S)-5-((R)-1-(3,4-dichlorophenyl)-1-hydroxyethyl)-3,4-dihydroxytetrahydrofuran-2-yl)-5-fluoro-1,7-dihydro-4H-pyrrolo[2,3-d]pyrimidin-4-one O-methyl oxime] was 28 nM.
Take `N/N=c1/nc[nH]c2c1ncn2[C@@H]1O[C@H]([C@H](O)c2ccc(Cl)cc2)[C@@H](O)[C@H]1O` [compound 39, (2R,3S,4R,5R)-2-[(R)-(4-chlorophenyl)-hydroxy-methyl]-5-(6-hydrazinopurin-9-yl) tetrahydrofuran-3,4-diol]: the IC50 came out at 180 nM.
For `CO/N=c1/nc[nH]c2c1ncn2[C@@H]1O[C@H]([C@H](O)c2ccc(Cl)cc2)[C@@H](O)[C@H]1O` [compound 53, (2R,3S,4R,5R)-2-[(R)-(4-chlorophenyl)-hydroxy-methyl]-5-[6-methoxyimino-3H-purin-9-yl]tetrahydrofuran-3,4-diol trifluoroacetic Acid Salt], the IC50 is 526 nM.
As to `CO/N=c1\nc[nH]c2c1c(F)cn2[C@@H]1OC([C@H](O)c2ccc(Cl)cc2)[C@@H](O)[C@H]1O` (stereo partly drawn) [compound 74, 7-((2R,3R,4S)-5-((R)-(4-chlorophenyl)(hydroxy)methyl)-3,4-dihydroxytetrahydrofuran-2-yl)-5-fluoro-1,7-dihydro-4H-pyrrolo[2,3-d]pyrimidin-4-one O-methyl oxime], the IC50 stood at 75.6 nM.
The same measure, in the same setting: then `CO/N=c1\nc[nH]c2c1ccn2[C@@H]1O[C@H]([C@H](O)c2ccc(C(F)(F)F)cc2)[C@@H](O)[C@H]1O` [compound 75, 7-((2R,3R,4S,5R)-3,4-dihydroxy-5-((R)-hydroxy(4-(trifluoromethyl)phenyl)methyl)tetrahydrofuran-2-yl)-1,7-dihydro-4H-pyrrolo[2,3-d]pyrimidin-4-one O-methyl oxime], with 95.4 nM; and `N/N=c1\nc[nH]c2c1ccn2[C@@H]1O[C@H]([C@H](O)c2ccc(C(F)(F)F)cc2)[C@@H](O)[C@H]1O` [compound 76, (2R,3R,4S,5R)-2-((Z)-4-hydrazineylidene-1,4-dihydro-7H-pyrrolo[2,3-d]pyrimidin-7-yl)-5-((R)-hydroxy(4-(trifluoromethyl)phenyl)methyl)tetrahydrofuran-3,4-diol], with 2.7 nM.
Regarding `Cc1cn([C@@H]2O[C@H]([C@H](O)c3ccc(Cl)cc3)[C@@H](O)[C@H]2O)c2[nH]cn/c(=N\O)c12` [compound 77, 7-((2R,3R,4S,5R)-5-((R)-(4-chlorophenyl)(hydroxy)methyl)-3,4-dihydroxytetrahydrofuran-2-yl)-5-methyl-1,7-dihydro-4H-pyrrolo[2,3-d]pyrimidin-4-one oxime], the IC50 stood at 118 nM.
On the same count and under the same terms, the value for `CO/N=c1\nc[nH]c2c1ccn2[C@@H]1OC([C@](O)(c2ccc(Cl)cc2)C(F)(F)F)[C@@H](O)[C@H]1O` (stereo partly drawn) [compound 79, 7-((2R,3R,4S)-5-((R)-1-(4-chlorophenyl)-2,2,2-trifluoro-1-hydroxyethyl)-3,4-dihydroxytetrahydrofuran-2-yl)-1,7-dihydro-4H-pyrrolo[2,3-d]pyrimidin-4-one O-methyl oxime] was 6460 nM.

The values above are taken from patent US11220524B2, “Selective inhibitors of protein arginine methyltransferase 5 (PRMT5)” (PRELUDE THERAPEUTICS, INCORPORATED, priority 2017, dated 2022).
